Results from patent publication US20190040083A1 (priority 2016, published 2019).
≈ marks a conversion by molar mass, not a printed value.

Key:
[1] = system: Escherichia coli ATCC 25922; test: microbe, parasite or virus in culture; format: cell-based; settings: ATCC25922
[2] = system: Acinetobacter baumannii NCTC 13420; test: microbe, parasite or virus in culture; format: cell-based; settings: NCTC13420
[3] = system: Enterobacter cloacae NCTC 13406; test: microbe, parasite or virus in culture; format: cell-based; settings: NCTC13406
[4] = system: Streptococcus pneumoniae ATCC 49619; test: microbe, parasite or virus in culture; format: cell-based; settings: ATCC49619
[5] = system: Haemophilus influenzae ATCC 49247; test: microbe, parasite or virus in culture; format: cell-based; settings: ATCC49247
[6] = system: Acinetobacter baumannii ATCC 19606; test: microbe, parasite or virus in culture; format: cell-based; settings: ATCC19606
[7] = system: Klebsiella pneumoniae ATCC 700603; test: microbe, parasite or virus in culture; format: cell-based; settings: ATCC700603
[8] = system: Staphylococcus aureus ATCC 29213; test: microbe, parasite or virus in culture; format: cell-based; settings: ATCC29213
[9] = system: Pseudomonas aeruginosa ATCC 27853; test: microbe, parasite or virus in culture; format: cell-based; settings: ATCC27853
[10] = system: human hepatic cell line (HepG2 ATCC HB-8065); test: cells; settings: HepG2, 24 h, read-out: IC50 (μg/mL) HepG2

| Structure (SMILES) | MIC [1] | MIC [2] | MIC [3] | MIC [4] | MIC [5] | MIC [6] | MIC [7] | MIC [8] | MIC [9] | IC50 [10] |
| --- | --- | --- | --- | --- | --- | --- | --- | --- | --- | --- |
| COc1ccc2ccc(=O)n(CCCN3CC[C@@H]4[C@@H](C3)OC(=O)N4c3ccc4c(n3)NC(=O)CO4)c2n1 (relative stereo) [Compound 9, rel-1-{3-[(3aR*,7aR*)-2-oxo-1-{3-oxo-2H,3H,4H-pyrido[3,2-b][1,4]oxazin-6-yl}-octahydro-[1,3]oxazolo[5,4-c]pyridin-5-yl]propyl}-7-methoxy-1,2-dihydro-1,8-naphthyridin-2-one] | < 1 µg/mL | < 1 µg/mL | 1 to 10 µg/mL (≈ 1.97 to 19.7 µM) | < 1 µg/mL | < 1 µg/mL | < 1 µg/mL | 10 to 100 µg/mL (≈ 19.7 to 197 µM) | < 1 µg/mL | 1 to 10 µg/mL (≈ 1.97 to 19.7 µM) | 10 to 100 µg/mL (≈ 19.7 to 197 µM) |
| N#Cc1ccc2ccc(=O)n(CCCN3CC[C@@H]4[C@H](C3)OC(=O)N4c3ccc4c(n3)NC(=O)CO4)c2c1 (relative stereo) [Compound 6, rel-1-{3-[(3aR*,7aS*)-2-oxo-1-{3-oxo-2H,3H,4H-pyrido[3,2-b][1,4]oxazin-6-yl}-octahydro-[1,3]oxazolo[5,4-c]pyridin-5-yl]propyl}-2-oxo-1,2-dihydroquinoline-7-carbonitrile] | < 1 µg/mL | < 1 µg/mL | 1 to 10 µg/mL (≈ 2 to 20 µM) | < 1 µg/mL | 1 to 10 µg/mL (≈ 2 to 20 µM) | 1 to 10 µg/mL (≈ 2 to 20 µM) | 10 to 100 µg/mL (≈ 20 to 200 µM) | < 1 µg/mL | 10 to 100 µg/mL (≈ 20 to 200 µM) | 10 to 100 µg/mL (≈ 20 to 200 µM) |
| O=C1COc2ccc(N3C(=O)O[C@H]4CN(CCCn5c(=O)ccc6ccccc65)CC[C@H]43)nc2N1 (relative stereo) [Compound 2, rel-1-{3-[(3aR*,7aS*)-2-oxo-1-{3-oxo-2H,3H,4H-pyrido[3,2-b][1,4]oxazin-6-yl}-octahydro-[1,3]oxazolo[5,4-c]pyridin-5-yl]propyl}-1,2-dihydroquinolin-2-one] | 1 to 10 µg/mL (≈ 2.1 to 21 µM) | < 1 µg/mL | 10 to 100 µg/mL (≈ 21 to 210 µM) | < 1 µg/mL | 1 to 10 µg/mL (≈ 2.1 to 21 µM) | 1 to 10 µg/mL (≈ 2.1 to 21 µM) | 10 to 100 µg/mL (≈ 21 to 210 µM) | < 1 µg/mL | 10 to 100 µg/mL (≈ 21 to 210 µM) | 10 to 100 µg/mL (≈ 21 to 210 µM) |
| COc1ccc2ccc(=O)n(CCCN3CC[C@H]4[C@@H](C3)OC(=O)N4c3ccc4c(n3)NC(=O)CO4)c2n1 (relative stereo) [Compound 7, rel-1-{3-[(3aR*,7aS*)-2-oxo-1-{3-oxo-2H,3H,4H-pyrido[3,2-b][1,4]oxazin-6-yl}-octahydro-[1,3]oxazolo[5,4-c]pyridin-5-yl]propyl}-7-methoxy-1,2-dihydro-1,8-naphthyridin-2-one] | < 1 µg/mL | < 1 µg/mL | 1 to 10 µg/mL (≈ 1.97 to 19.7 µM) | < 1 µg/mL | < 1 µg/mL | < 1 µg/mL | 10 to 100 µg/mL (≈ 19.7 to 197 µM) | < 1 µg/mL | 10 to 100 µg/mL (≈ 19.7 to 197 µM) | 10 to 100 µg/mL (≈ 19.7 to 197 µM) |
| N#Cc1ccc2ccc(=O)n(CCCN3CC[C@@H]4[C@@H](C3)OC(=O)N4c3ccc4c(n3)NC(=O)CO4)c2c1 (relative stereo) [Compound 10, rel-1-{3-[(3aR*,7aR*)-2-oxo-1-{3-oxo-2H,3H,4H-pyrido[3,2-b][1,4]oxazin-6-yl}-octahydro-[1,3]oxazolo[5,4-c]pyridin-5-yl]propyl}-2-oxo-1,2-dihydroquinoline-7-carbonitrile] | < 1 µg/mL | < 1 µg/mL | 1 to 10 µg/mL (≈ 2 to 20 µM) | < 1 µg/mL | < 1 µg/mL | < 1 µg/mL | 10 to 100 µg/mL (≈ 20 to 200 µM) | < 1 µg/mL | 1 to 10 µg/mL (≈ 2 to 20 µM) | 10 to 100 µg/mL (≈ 20 to 200 µM) |
